Structures are written as SMILES. Where a SMILES comes first, the peptide text is derived from it. The star is where a group is joined. Cbz = O=C(OCc1ccccc1)*

Common to all, as to assay type: cell-based, human
Assay [1] concerns proteasome activity in 2008/C*13 R cells. Put plainly: Proteasome activity assay (commercially available kit) on cell lysates. As to conditions: 48 h.
The subject of assay [2] is MDA-7 protein in 2008/C*13 R cells. Put plainly: Western blotting of MDA-7 protein expression. As to conditions: 48 h, vs Ad-mda7 alone. The procedure:
FIG. 4. MDA-7 protein expression is increased in CDDP-Resistant Ovarian tumor cells in a time-dependent and dose-dependent manner. FIG. 4A, Ovarian tumor cells (2008 and 2008/C*13 R) seeded in six-well plates were treated with PBS, Ad-luc or Ad-mda7 (3000 vp/cell). Cells were harvested on day 1 and day 2 after treatment and analyzed for MDA-7 protein expression by western blotting. […] Beta-actin was used as an internal loading control. FIG. 4B, Ovarian tumor cells (2008 and 2008/C*13 R) seeded in six-well plates were treated with different doses of Ad-mda7 (1000, 3000, 5000 or 7500 vp/cell). Untreated cells served as control. Cells were harvested on day 2 after treatment and analyzed for MDA-7 protein expression by western blotting. […] Beta-actin was used as an internal loading control. […] However, MDA-7 protein was higher in the supernatant of Ad-mda7-treated 2008/C*13 R cells compared to Ad-mda7-treated 2008 cells.
FIG. 11. […]
MDA-7 Protein Expression is Increased in CDDP-Resistant Ovarian Tumor Cells in a Time-dependent and Dose-Dependent Manner. […] Cells were harvested on day 1 and day 2 after treatment and analyzed for MDA-7 protein expression by western blotting. […] Cells were harvested on day 2 after treatment and analyzed for MDA-7 protein expression by western blotting. […]
(In western blotting, separated proteins are transferred to a membrane and probed.)

The subject of assay [3] is p53, pJNK, p38MAPK, p44/42MAPK in 2008 cells. As to the kind of experiment: Western blotting of endogenous ubiquitinated proteins. As to conditions: 24 h. The procedure:
FIG. 16. Expression of endogenous ubiquitinated proteins is increased in MG132-treated CDDP-sensitive tumor cells but not in CDDP-resistant tumor cells. CDDP-resistant (2008/C*13 R) and sensitive (2008) ovarian tumor cells were plated in six-well plates. At 24 h after plating cells were treated with PBS or MG132. At 24 h after treatment cells were harvested, lysates prepared and subjected to western blotting. Primary antibodies used were anti-human p53, anti-human pJNK, antihuman-p38MAPK and anti-human p44/42MAPK antibody. […] Beta-actin was used as internal loading control.
FIG. 19. SiRNA-mediated inhibition of Beta-5 subunit expression of the 20S proteasome in CDDP-sensitive tumor cells results in increased endogenous protein expression. CDDP-sensitive (2008) ovarian tumor cells were plated in six-well plates. At 24 h after plating cells were treated with PBS, control SiRNA, or beta-5 specific SiRNAs (100 nM). At 48 h after treatment cells were harvested, lysates prepared and subjected to western blotting. Primary antibodies used were anti-human beta-5 antibody, anti-human p53 antibody and anti-human pJNK antibody. […] Beta-actin was used as internal loading control.
Expression of Endogenous Ubiquitinated Proteins is Increased in MG132-Treated CDDP-Sensitive Tumor Cells but not in CDDP-Resistant Tumor Cells. […]

With `CC(C)C[C@@H](C=O)NC(=O)[C@H](CC(C)C)NC(=O)[C@H](CC(C)C)NC(=O)OCc1ccccc1` [MG132] (Cbz-Leu-Leu-Leu-aldehyde), the “inhibition of proteasome activity” value in assay [1] (FIG. 11A (Ad-mda7 experiment)) and in assay [1] (FIG. 11B (Ad-p53 experiment)) was 20% in each case. Besides, in assay [2], the “MDA-7 protein expression with proteasome inhibitor” value is on record as “significantly increased”. In addition, the “expression of p53, pJNK, p38MAPK, p44/42MAPK” value in assay [3] is listed as “increased expression”.
